Laboratory results reported in article doi:10.1101/2025.01.23.634542, “Convergent Agonist and Heat Activation of Nociceptor TRPM3” (bioRxiv, 2025).

Columns and labels:
[1] = system: TRPM3 CIM0216 binding site mutants; test: CIM0216-induced whole-cell currents in CIM0216 binding site mutants; assay type: cell-based, rabbit; settings: whole-cell currents at +140 mV, 22 °C (Fig. 1c)
From the text: Figure 1: TRPM3 activation by superagonist CIM0216. a, Structure of TRPM3 in complex with CIM0216, shown in cartoon representation and viewed parallel to the membrane. CIM0216 (green) is fitted into the cryo-EM density map (right panel). One subunit is highlighted in red, and the rib helix from the adjacent subunit is highlighted in cyan. b, Close-up view of the CIM0216 binding site, detailing key interactions. c, Whole-cell currents measured in tsA cells overexpressing wild-type TRPM3 or CIM0216 binding site mutants at 22 °C. […] CIM0216-induced current amplitudes at +140 mV were calculated by subtracting the steady-state current recorded before CIM0216 application from the steady-state current recorded after CIM0216 application. Each point represents a single cell (from left to right, n = 6, 4, 5, 4, 4, 4, 4, 4, 4, 5), with bars indicating the mean. Statistical analysis was performed using one-way ANOVA with Bonferroni’s post hoc test (***P < 0.001). d, Structural comparison of CIM0216-bound activated state (red) and apo resting state (blue), superimposed using the TMD (residues 848–1119). Root-mean-square deviations (r.m.s.d.) are shown for individual domains. Black arrows indicate the approximate direction of domain movements.

[2] = system: TRPM3 mutants at the interface between the MHR1/2 domain and the rib helix; test: Agonist sensitivity of mutants at the MHR1/2 domain-rib helix interface relative to wild type; assay type: cell-based, rabbit; settings: interface mutants versus wild type, maximum fold
[3] = target: wild-type rabbit TRPM3 (rTRPM3) (Oryctolagus cuniculus, UniProt G1T6W8); test: Whole-cell patch-clamp agonist dose-response, wild-type TRPM3 in tsA cells; assay type: cell-based; settings: WT TRPM3, whole-cell current at +80 mV
Chain of wild-type rabbit TRPM3 (rTRPM3) (G1T6W8 entry or part of it): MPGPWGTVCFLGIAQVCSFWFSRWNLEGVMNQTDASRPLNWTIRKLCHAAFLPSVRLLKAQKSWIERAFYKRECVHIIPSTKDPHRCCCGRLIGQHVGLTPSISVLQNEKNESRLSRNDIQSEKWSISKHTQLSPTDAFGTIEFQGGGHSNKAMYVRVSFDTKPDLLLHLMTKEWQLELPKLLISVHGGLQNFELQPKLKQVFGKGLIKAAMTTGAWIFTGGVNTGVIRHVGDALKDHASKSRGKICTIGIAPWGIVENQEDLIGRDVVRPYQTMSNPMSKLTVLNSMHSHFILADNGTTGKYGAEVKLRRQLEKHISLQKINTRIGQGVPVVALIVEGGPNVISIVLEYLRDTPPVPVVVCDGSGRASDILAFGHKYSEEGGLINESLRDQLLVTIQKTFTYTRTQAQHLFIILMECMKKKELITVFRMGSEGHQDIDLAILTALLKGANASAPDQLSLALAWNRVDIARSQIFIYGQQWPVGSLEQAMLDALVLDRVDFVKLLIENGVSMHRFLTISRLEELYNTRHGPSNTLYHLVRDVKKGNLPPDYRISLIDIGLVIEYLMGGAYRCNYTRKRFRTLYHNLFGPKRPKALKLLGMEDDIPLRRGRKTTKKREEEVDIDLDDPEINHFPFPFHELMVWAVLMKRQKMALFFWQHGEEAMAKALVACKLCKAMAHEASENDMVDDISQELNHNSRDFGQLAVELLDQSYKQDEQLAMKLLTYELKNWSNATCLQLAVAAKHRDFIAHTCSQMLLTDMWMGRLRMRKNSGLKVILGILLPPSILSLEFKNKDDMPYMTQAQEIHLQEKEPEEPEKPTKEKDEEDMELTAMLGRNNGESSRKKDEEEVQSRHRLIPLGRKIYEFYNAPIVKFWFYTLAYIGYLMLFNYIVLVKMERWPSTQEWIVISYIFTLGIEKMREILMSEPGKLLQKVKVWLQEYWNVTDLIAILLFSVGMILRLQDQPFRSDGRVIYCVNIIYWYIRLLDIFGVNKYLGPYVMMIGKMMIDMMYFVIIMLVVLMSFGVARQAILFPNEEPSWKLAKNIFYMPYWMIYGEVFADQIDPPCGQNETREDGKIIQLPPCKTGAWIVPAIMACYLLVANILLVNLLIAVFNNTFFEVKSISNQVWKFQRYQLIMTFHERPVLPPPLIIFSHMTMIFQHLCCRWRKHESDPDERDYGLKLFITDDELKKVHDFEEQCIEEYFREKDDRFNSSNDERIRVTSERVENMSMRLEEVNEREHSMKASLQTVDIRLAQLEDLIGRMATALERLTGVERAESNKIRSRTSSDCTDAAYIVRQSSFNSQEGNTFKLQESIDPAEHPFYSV

wild-type TRPM3 = test: Primidone inhibition of heat-activated whole-cell currents, wild-type TRPM3; assay type: cell-based, rabbit; settings: WT TRPM3, heat-activated whole-cell currents at 37 °C with primidone (Fig. 4d)
[4] = system: TRPM3 primidone binding site mutants; test: Primidone inhibition of PregS-induced currents in primidone binding site mutants; assay type: cell-based, rabbit; settings: PregS-induced currents with and without primidone, 22 °C (Fig. 4c)

Molecule | Effect of alanine substitutions at key binding residues on CIM0216-evoked currents [1] | Higher sensitivity of mutants to agonist in dose-response experiments [2] | EC50 [3] [nM] | Effect on heat-induced channel activation (wild-type TRPM3) | Effect of alanine substitutions at key binding residues on the inhibitory effect [4]
Cc1cc(NC(=O)C(c2ccccc2)N2CCCc3ccccc32)no1 (stereo not drawn) [CIM0216] | diminished or abolished | up to 3 fold | 700 | – | –
CCC1(c2ccccc2)C(=O)NCNC1=O [primidone] | – | – | – | effectively suppresses heat-induced channel activation | markedly reduced or abolished
pregnenolone sulfate [PregS] | – | up to 13 fold | – | – | –
